Experimental data: paper PMC8120183, “Cardamonin inhibits the progression of oesophageal cancer by inhibiting the PI3K/AKT signalling pathway” (Journal of Cancer, 2021)
Peptide text beside a SMILES is read from it. * marks the point of attachment. Cbz = O=C(OCc1ccccc1)*; CH2F = FC*

Columns and labels:
EC9706 cells [1] = test: Annexin V-FITC/PI flow cytometry, apoptosis; assay type: cell-based, human; details: co-incubation with CAR
Method: After the oesophageal cancer cells were treated with different concentrations of CAR for 48 h, the cells were digested with trypsin, washed twice with PBS, and resuspended in 1× loading buffer. The cells were double-stained with 5 µL of annexin V-FITC and 5 μL of PI and then incubated in the dark for 30 min before flow cytometry analysis.

[2] = tested on: EC9706 and TE10 oesophageal cancer cells; test: Wound healing assay; assay type: cell-based, human; details: within 24 h
Method: Oesophageal cancer cells were seeded into 6-well plates (5×10^5 cells/well) and then linearly scratched with a 10-μL pipette tip. After treatment for 24 h with different concentrations of CAR, cell migration was observed using an inverted microscope.

[3] = tested on: Bad, Bax, Bcl-2, PARP, caspase-3 in EC9706 cells; test: Western blot, apoptosis-related proteins; assay type: cell-based, human; details: 48 h
Method: (§1) Oesophageal cancer cells were inoculated into a 6-well plate (5×10^5 cells/well). Cells were treated with different concentrations of CAR and then incubated for an additional 48 h. The cells were lysed using radio-immunoprecipitation assay (RIPA) buffer. The protein concentration was determined using a BCA kit. Proteins were separated by 8-12% sodium dodecyl sulfate-polyacrylamide gel electrophoresis (SDS-PAGE) and then transferred to a polyvinylidene fluoride (PVDF) membrane. The membrane was blocked with 5% nonfat milk for 1 h and then incubated with primary antibodies at 4 °C overnight. The membrane was then incubated with secondary antibodies for 1 h at room temperature. Finally, the membrane was imaged using a chemiluminescence imaging analyser. The greyscale value of each target protein band was analysed using the software provided with the analyser.

[4] = tested on: PCNA, p-PI3K, p-AKT, Bcl2, vimentin; test: Immunohistochemistry of xenograft tumour tissue; assay type: in vivo, nude mice; details: with increasing CAR concentrations
Method: A suspension of EC9706 cells (2×10^7 cells/ml) was injected into the middle of and posterior to the armpit of 4- to 6-week-old male nude mice. One week after inoculation, a soybean-sized subcutaneous mass appeared in the armpits of the mice. Then, different doses of CAR (5, 15, or 25 mg/kg) or sodium carboxymethyl cellulose (CMC), which served as a control, were administered by gavage once every three days. The body weights of the mice and tumour size were measured at the same time. Mice were euthanized 26 days after drug administration. Immunohistochemistry (IHC) was used to stain the tumours, and stomach tissue was stained with haematoxylin-eosin (HE). Tumour tissues were fixed with 4% paraformaldehyde and embedded in paraffin. Paraffin-embedded tissue blocks were cut into slices with a thickness of 3-5 mm. Tumour sections were immunohistochemically stained with PCNA (1:100), Bcl-2 (1:100), vimentin (1:100), phosphorylated Akt (1:100), and phosphorylated PI3K (1:100) antibodies according to the steps of the immunohistochemistry kit. For HE staining, tissues were sectioned after deparaffinization, stained with haematoxylin and eosin, and mounted on slides with neutral gum.

EC9706 cells [5] = test: MTT assay, cell viability and IC50; assay type: cell-based, human
Method: (§2) EC9706 and TE10 oesophageal cancer cells in the logarithmic growth phase were harvested and inoculated into 96-well plates at a density of 3000 cells/well. The cells were cultured in an incubator for 12 h and then treated with different concentrations of CAR and DMSO. The NC group was also set up. After incubation for 24 h or 48 h, 10 µL of MTT solution (5 mg/ml) was added to each well. The supernatant was aspirated, and 100 µL of DMSO was added to each well. The absorbance at a wavelength of 490 nm was measured using a microplate reader.

TE10 cells = test: MTT assay, cell viability and IC50; assay type: cell-based, human
Method: as §2

PCNA in EC9706 cells = test: Western blot, proliferation marker; assay type: cell-based, human; details: 48 h
Method: as §1

[6] = tested on: oesophageal cancer cell lines EC9706 and TE10; test: Crystal violet staining, cell proliferation; assay type: cell-based, human; details: 4, 6, 8, 10 µM; 24 h and 48 h; similar in MTT assay
Method: Oesophageal cancer cells at a density of 3×10^4 cells/well were seeded in 24-well plates. Then, the cells were treated with different concentrations of prepared CAR or DMSO, and the NC group was set up. After incubation in an incubator for 24 h and 48 h, crystal violet staining solution was added to each well. After imaging under a scanner, the cells were fully dissolved in 20% acetic acid solution. To calculate cell viability, the optical density (OD) value of each well was measured at 590 nm using an enzyme-linked immunosorbent assay (ELISA) spectrophotometer.

EC9706 xenograft = test: EC9706 tumour xenograft model, tumour growth; assay type: in vivo, nude mice; details: 5, 15 or 25 mg/kg by gavage once every three days, compared with control group
Method: (§3) A suspension of EC9706 cells (2×10^7 cells/ml) was injected into the middle of and posterior to the armpit of 4- to 6-week-old male nude mice. One week after inoculation, a soybean-sized subcutaneous mass appeared in the armpits of the mice. Then, different doses of CAR (5, 15, or 25 mg/kg) or sodium carboxymethyl cellulose (CMC), which served as a control, were administered by gavage once every three days. The body weights of the mice and tumour size were measured at the same time. Mice were euthanized 26 days after drug administration. Immunohistochemistry (IHC) was used to stain the tumours, and stomach tissue was stained with haematoxylin-eosin (HE).

[7] = Serum ALT, AST and CR levels; assay type: in vivo, nude mice; details: mean±SD (n=3)
Method: as §3

[8] = tested on: normal gastric epithelial cells (GES-1); test: MTT assay, IC50 in normal cells; assay type: cell-based, human; details: GES-1, 24 h and 48 h
Method: as §2
(§4) Supplementary Figure 1 (A -D) EC9706 and TE10 cells were treated with different concentrations of CAR or DMSO, and cell viability and the IC50 at 24 h and 48 h were examined by MTT assay. (E-H) HET-1A and GES-1 cells were treated with different […]
(§5) examined by MTT assay. (I-J) EC9706 cells were incubated with CAR or the caspase inhibitor Z-VAD- FMK or co-incubated, and mitochondrial apoptosis pathway- related proteins were detected by Western blot. […]
(§6) reverse the expression of Bcl2, Bax, Bad, caspase- 3, and cleaved caspase- 3. (K and L) The apoptosis of EC9706 cells after applying the caspase inhibitor Z-VAD- FMK was detected by […]
(§7) (1 picture or pasted object on this page, not shown here)

[9] = tested on: oesophageal cancer cell lines EC9706 and TE10; test: Colony formation assay; assay type: cell-based, human
Method: Oesophageal cancer cells were inoculated into 6-well plates at a density of 8×10^2 cells/well and treated with different concentrations of CAR. The cells were continuously cultured for two weeks until colonies visible to the naked eye had formed. Then, the supernatant was discarded, and crystal violet staining solution was added for 10 min. The cells were dried and photographed, and the colony formation rate was calculated.

[10] = HE staining of important organs; assay type: in vivo, nude mice; details: treatment group vs control group
Method: as §3
Tumour tissues were fixed with 4% paraformaldehyde and embedded in paraffin. Paraffin-embedded tissue blocks were cut into slices with a thickness of […]. Tumour sections were immunohistochemically stained with PCNA (1:100), Bcl-2 (1:100), vimentin (1:100), phosphorylated Akt (1:100), and phosphorylated PI3K (1:100) antibodies according to the steps of the immunohistochemistry kit. For HE staining, tissues were sectioned after deparaffinization, stained with haematoxylin and eosin, and mounted on slides with neutral gum.

EC9706 and TE10 cells [11] = test: Transwell migration assay; assay type: cell-based, human
Method: (§8) A total of 100 μL of Matrigel was placed in the upper chamber of a Transwell system and incubated at 37 °C for 2 h to form a white membrane visible to the naked eye. Cells were resuspended in serum-free medium and adjusted to a concentration of 3×10^4 cells/well. Medium containing 10% FBS was added into the lower chamber, and CAR was added based on a concentration gradient. Next, the cells were incubated for 48 h and then stained with crystal violet for 10 min. Then, an inverted microscope was used to observe the cells; five fields were randomly selected to observe and count the cells. To assess cell migration, all the above steps were repeated, but Matrigel was not added to the upper chamber.

[12] = tested on: human normal oesophageal cells (HET-1A); test: MTT assay, IC50 in normal cells; assay type: cell-based; details: 24 h and 48 h
Method: as §2, §4, §5, §6, §7

EC9706 and TE10 cells [13] = test: Transwell Matrigel invasion assay; assay type: cell-based, human; details: 48 h
Method: as §8

[14] = tested on: PI3K/AKT signalling pathway in EC9706 cells; test: Western blot, PI3K/AKT signalling pathway; assay type: cell-based, human
Method: as §1

[15] = tested on: E-cadherin, N-cadherin, vimentin, Snail, MMP2, MMP7, MMP9 in EC9706 cells; test: Western blot, EMT-related marker proteins and MMPs; assay type: cell-based, human
Method: as §1

[16] = Blood routine related indexes; assay type: in vivo, nude mice; details: Mean±SD (n=3)
Method: as §3

[17] = tested on: EC9706 and TE10 oesophageal cancer cells; test: Hoechst 33258 staining, apoptosis; assay type: cell-based, human
Method: Cells were seeded into 24-well plates (3×10^4 cells/well). The cells were treated with different concentrations of CAR and then incubated for 48 h, followed by fixation with 4% paraformaldehyde for 30 min and one wash with PBS. The cells were stained with Hoechst 33258 (50 ng/ml) for 30 min. Apoptotic cells were observed using a fluorescence microscope (apoptotic cells were characterized by dense chromatin), and five randomly selected fields were used for cell counting.

[18] = Body weight of xenograft mice; assay type: in vivo, nude mice; details: 5, 15 or 25 mg/kg by gavage, compared with control group
Method: as §3

[19] = 5 mg/kg by gavage once every three days
[20] = 15 mg/kg by gavage once every three days
[21] = 25 mg/kg by gavage once every three days
[22] = 48 h, compared with control group

## COC(=O)C[C@H](NC(=O)[C@H](C)NC(=O)[C@@H](NC(=O)OCc1ccccc1)C(C)C)C(=O)CF [Z-VAD-FMK] (Cbz-Val-Ala-Asp(OMe)-CH2F)
EC9706 cells [1]
  effect of caspase inhibitor pretreatment on CAR-induced apoptosis: could reverse the apoptosis induced by CAR

## COc1cc(O)cc(O)c1C(=O)/C=C/c1ccccc1 [CAR, Cardamonin]
[2]
  healing rate: gradually decreased with increases in the CAR concentration
[3]
  expression of anti-apoptosis-related proteins: downregulated the expression level of the anti-apoptosis-related proteins Bcl-2, PARP, and caspase-3
  expression of pro-apoptosis-related proteins: upregulated the expression levels of the pro-apoptosis-related proteins Bad, Bax, cleaved PARP, and cleaved caspase-3
[4]
  expression of PCNA, p-PI3K, p-AKT, Bcl2 and vimentin in tumour: the expression levels of PCNA, p-PI3K, p-AKT, Bcl2, and vimentin were downregulated
EC9706 cells [5]; 24 h
  IC50: 12.2 µM
EC9706 cells [5]; 48 h
  IC50: 8.67 µM
TE10 cells; 24 h
  IC50: 12.5 µM
TE10 cells; 48 h
  IC50: 8.4 µM
PCNA in EC9706 cells
  PCNA expression: significantly inhibited PCNA expression
[6]
  cell proliferation: inhibited oesophageal cancer cell proliferation in time- and concentration-dependent manners
EC9706 xenograft
  tumour growth: significantly inhibited tumour growth
[7]; [19]
  ALT: 25.97±1.19 U/L
  AST: 57.56±2.19 U/L
  CR: 51.41 ± 4.33 µmol/L
[7]; [20]
  ALT: 23.50±2.88 U/L
  AST: 55.38±3.26 U/L
  CR: 49.61 ± 6.54 µmol/L
[7]; [21]
  ALT: 21.04±2.52 U/L
  AST: 57.20±4.16 U/L
  CR: 53.34 ± 7.72 µmol/L
[8]
  IC50 in normal cells compared with oesophageal cancer cells: higher IC50 values
[9]; two weeks culture
  colony formation: significant inhibitory effect on the colony formation of oesophageal cancer cells in a concentration-dependent manner
[10]
  HE staining of important organs: no difference in HE staining was observed between the treatment group and the control group
EC9706 and TE10 cells [11]; [22]
  cell migration: significantly inhibited oesophageal cancer cell migration
[12]
  IC50 in normal cells compared with oesophageal cancer cells: higher IC50 values
EC9706 and TE10 cells [13]
  invasive ability: significantly inhibited the invasive ability of oesophageal cancer cells
[14]; EC9706 cells, with increasing CAR concentrations
  protein levels of p-PI3K and p-AKT: decreased significantly
[15]
  E-cadherin expression: upregulated the expression of E-cadherin
  MMP2, MMP7 and MMP9 expression: significantly reduced the expression of MMP2, MMP7, and MMP9
  N-cadherin, vimentin and Snail expression: significantly downregulated the expression of N-cadherin and vimentin as well as the EMT transcription factor Snail
[16]; [19]
  Gran: 25.43±2.58%
  HCT: 39.87±7.80%
  HGB: 131.33 ± 6.51 g/L
  LYM: 70.80±4.07%
  MCH: 20.07 ± 0.93 pg
  MCHC: 348.00 ± 12.77 g/L
  MCV: 57.63 ± 1.50 fL
  Mon: 3.77±1.95%
  PLT: 1009±44.24 ×10^9/L
  RBC: 6.91±1.49 ×10^12/L
  WBC: 3.90±0.17 ×10^9/L
[16]; [20]
  Gran: 24.53±2.28%
  HCT: 35.77±1.86%
  HGB: 137.00 ± 19.00 g/L
  LYM: 72.30±3.15%
  MCH: 19.40 ± 2.07 pg
  MCHC: 332.33 ± 19.09 g/L
  MCV: 58.33 ± 2.78 fL
  Mon: 3.17±1.01%
  PLT: 1074.00±42.80 ×10^9/L
  RBC: 6.13±0.08 ×10^12/L
  WBC: 3.82±0.07 ×10^9/L
[16]; [21]
  Gran: 23.53±2.25%
  HCT: 34.30±2.17%
  HGB: 142.33 ± 5.69 g/L
  LYM: 74.13±1.53%
  MCH: 17.93 ± 0.49 pg
  MCHC: 336.00 ± 7.00 g/L
  MCV: 56.03 ± 1.56 fL
  Mon: 3.20±0.87%
  PLT: 1077.00±42.58 ×10^9/L
  RBC: 6.42±0.19 ×10^12/L
  WBC: 3.80±0.14 ×10^9/L
[17]; [22]
  number of apoptotic cells: gradually increased with increasing drug concentrations
[18]
  weight of mice: did not significantly change

## 740Y-P [reference compound]
[9]; MTT and colony formation assays, co-incubation with CAR
  effect of PI3K agonist on antiproliferation effect of CAR: could partially reverse the antiproliferation effect of CAR
EC9706 and TE10 cells [11]; scratch healing, Transwell migration and invasion assays, co-incubation with CAR
  effect of PI3K agonist on anti-migration and anti-invasion effects of CAR: can partially reverse the anti-migration and anti-invasion effects of CAR on oesophageal cancer cells
[14]; co-incubation with CAR
  effect of PI3K agonist on CAR inhibition of PI3K/AKT: eliminated the inhibitory effect of CAR on PI3K/AKT in oesophageal cancer cells
[17]; Hoechst 33258 staining and flow cytometry, co-incubation with CAR
  effect of PI3K agonist on apoptosis-promoting effect of CAR: could partially reverse the apoptosis-promoting effect of CAR on EC9706 and TE10 cells
